Results: the supplement of paper PMC10307832

Legend:
Experiment in all cases: relative viability (nuclei count vs DMSO), 5 days (fraction); higher = more cells survive
[1] = compound: CC(C)C[C@H](NC(=O)[C@H](Cc1ccccc1)NC(=O)c1cnccn1)B(O)O [Bortezomib] + O=C(CCCCCCC(=O)Nc1ccccc1)NO [Vorinostat] (partner 1 µM)
In short: (§1)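 The day after seeding in 1536-well plates, lung cancer cell lines were treated by pin tool with a single drug, or with a fixed anchor-drug dose together with five library-drug doses (not always all listed) in √10 steps. After 5 days, a combined fix-and-stain solution (final 0.05% Triton X-100, 1% formaldehyde, 1 ug/ml Hoechst) was added. Nuclei counted on 4× images gave relative viability as treated counts over vehicle counts, reported as the median of duplicate plates.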

[2] = compound: CC1=CC(=NN1)NC2=CC(=NC(=N2)/C=C/C3=CC=CC=C3)N4CCN(CC4)C + CC(=O)Nc1cccc(-n2c(=O)n(C3CC3)c(=O)c3c(Nc4ccc(I)cc4F)n(C)c(=O)c(C)c32)c1 [Trametinib] (partner 0.02 µM)
In short: as §1

[3] = compound: CC1=CC(=NN1)NC2=CC(=NC(=N2)/C=C/C3=CC=CC=C3)N4CCN(CC4)C + Cc1nc(NC(=O)N2CCC[C@H]2C(N)=O)sc1-c1ccnc(C(C)(C)C(F)(F)F)c1 [Alpelisib] (partner 2 µM)
In short: as §1

[4] = compound: COC1=CC(c2cc3ccccc3[nH]2)=N/C1=C\c1[nH]c(C)cc1C [Obatoclax] + Cc1nc(Nc2ncc(C(=O)Nc3c(C)cccc3Cl)s2)cc(N2CCN(CCO)CC2)n1 [Dasatinib] (partner 0.075 µM)
In short: as §1

Row | Cell Line | relative viability ([1]; first compound 0.0002 µM) | relative viability ([1]; first compound 0.000632 µM) | relative viability ([1]; first compound 0.002 µM) | relative viability ([1]; first compound 0.006325 µM) | relative viability ([1]; first compound 0.02 µM) | relative viability ([2]; first compound 0.08 µM) | relative viability ([2]; first compound 0.253 µM) | relative viability ([2]; first compound 0.8 µM) | relative viability ([2]; first compound 2.53 µM) | relative viability ([2]; first compound 8 µM) | relative viability ([3]; first compound 0.08 µM) | relative viability ([3]; first compound 0.253 µM) | relative viability ([3]; first compound 0.8 µM) | relative viability ([3]; first compound 2.53 µM) | relative viability ([3]; first compound 8 µM) | relative viability ([4]; first compound 0.01 µM) | relative viability ([4]; first compound 0.03162 µM) | relative viability ([4]; first compound 0.1 µM) | relative viability ([4]; first compound 0.3162 µM) | relative viability ([4]; first compound 1 µM)
1 | 201T | 0.964 | 0.936 | 0.993 | 0.916 | 0.328 | 0.713 | 0.741 | 0.674 | 0.664 | 0.649 | 1.04 | 1.08 | 1.01 | 0.931 | 0.793 | 0.599 | 0.412 | 0.588 | 0.569 | 0.6
2 | A549 |  |  |  |  |  |  |  |  |  |  | 0.685 | 0.684 | 0.398 | 0.0413 | 0.0242 |  |  |  |  | 
3 | A-427 | 0.845 | 0.878 | 0.833 | 0.185 | 0.153 | 0.632 | 0.6 | 0.76 | 0.451 | 0.215 | 1.08 | 1.15 | 1.07 | 0.716 | 0.133 | 0.719 | 0.687 | 0.462 | 0.6 | 0.271
4 | ABC-1 | 0.689 | 0.415 | 0.288 | 0.29 | 0.312 |  |  |  |  |  | 1.01 | 1.09 | 1.02 | 0.855 | 0.22 | 0.498 | 0.55 | 0.369 | 0.551 | 0.375
5 | BEN | 0.559 | 0.586 | 0.558 | 0.509 | 0.317 | 0.901 | 1.07 | 1.02 | 0.895 | 0.31 | 1.06 | 1.1 | 0.986 | 0.865 | 0.186 | 0.321 | 0.312 |  | 0.41 | 0.272
6 | CAL-12T | 0.781 | 0.922 | 0.691 | 0.281 | 0.0995 | 0.362 | 0.292 | 0.259 | 0.102 | 0.104 | 1.04 | 1.21 | 1.24 | 0.339 | 0.121 | 0.419 | 0.414 | 0.426 | 0.0751 | 0.0688
7 | COR-L23 | 0.474 | 0.446 | 0.192 | 0.0554 | 0.0587 | 0.549 | 0.244 | 0.574 | 0.102 | 0.0853 | 0.751 | 0.722 | 0.57 | 0.178 | 0.0573 | 0.494 | 0.488 | 0.416 | 0.285 | 0.163
8 | Calu-6 |  |  |  |  |  |  |  |  |  |  | 1.01 | 0.973 | 0.661 | 0.134 | 0.117 |  |  |  |  | 
9 | ChaGo-K-1 | 0.709 | 0.753 | 0.827 | 0.441 | 0.162 | 0.937 | 0.887 | 0.807 | 0.753 | 0.19 |  |  |  |  |  | 0.637 | 0.582 | 0.502 | 0.584 | 0.644
10 | EBC-1 |  |  |  |  |  |  |  |  |  |  | 0.83 | 0.87 | 0.788 | 0.183 | 0.128 |  |  |  |  | 
11 | HCC-44 | 1.07 | 1.07 | 1.1 | 0.557 | 0.328 | 1.04 | 1.06 | 1.04 | 1.09 | 0.677 | 0.784 | 0.879 | 0.675 | 0.281 | 0.0774 |  |  |  |  | 
12 | IA-LM | 0.955 | 0.788 | 0.806 | 0.674 | 0.008 |  |  |  |  |  | 0.737 | 0.799 | 0.782 | 0.461 | 0.221 |  |  |  |  | 
13 | NCI-H522 | 0.824 | 0.818 | 0.976 | 0.446 | 0.334 | 0.856 | 0.676 | 0.823 | 0.688 | 0.362 |  |  |  |  |  | 1.03 | 0.757 | 0.696 | 0.851 | 0.573
14 | NCI-H1299 |  |  |  |  |  |  |  |  |  |  | 1.06 | 1.08 | 1.04 | 1.1 | 0.605 |  |  |  |  | 
15 | NCI-H1563 |  |  |  |  |  |  |  |  |  |  | 0.896 | 0.893 | 0.782 | 0.555 | 0.392 | 0.457 | 0.437 | 0.453 | 0.457 | 0.469
16 | NCI-H1623 |  |  |  |  |  |  |  |  |  |  |  |  |  |  |  | 0.548 | 0.502 | 0.499 | 0.572 | 0.52
17 | NCI-H1648 | 0.295 | 0.395 | 0.268 | 0.264 | 0.241 | 0.47 | 0.412 | 0.497 | 0.435 | 0.316 |  |  |  |  |  |  |  |  |  | 
18 | NCI-H1650 | 0.575 | 0.58 | 0.151 | 0.139 | 0.155 | 0.547 | 0.566 | 0.651 | 0.197 | 0.0762 |  |  |  |  |  | 0.304 | 0.329 | 0.396 | 0.271 | 0.179
19 | NCI-H1703 |  |  |  |  |  |  |  |  |  |  | 0.302 | 0.32 | 0.205 | 0.128 | 0.0994 |  |  |  |  | 
20 | NCI-H1792 |  |  |  |  |  | 0.427 | 0.402 | 0.396 | 0.195 | 0.0298 | 0.648 | 0.8 | 0.726 | 0.475 | 0.213 | 0.867 | 0.8 |  | 0.72 | 0.962
21 | NCI-H2342 | 1.01 | 0.789 | 0.838 | 0.748 | 0.627 | 1 | 0.869 | 0.958 | 0.962 | 0.602 |  |  |  |  |  | 0.365 | 0.303 | 0.347 | 0.285 | 0.302
22 | SW 900 | 0.482 | 0.54 | 0.163 | 0.169 | 0.173 | 0.957 | 0.625 | 0.839 | 0.215 | 0.0981 |  |  |  |  |  | 0.637 | 0.627 | 0.543 | 0.206 | 0.153
